Patent publication US7759345B2, “Antitumoral derivatives of ET-743” (priority 2001, dated 2010)
Where two headings read alike, the source gives them in different places.

Experiments:
MEL-28 = experiment: Inhibition of cell growth by counting cells, MEL-28; type: cell-based, human; conditions: Homo sapiens, SK-MEL-28, 72 h, read-out: IC50 (molar) MEL-28
Experimental: (§1) 1°.—Inhibition of Cell Growth by Counting Cells.
(§2) This form of the assay employs 24 well multidishes of 16 mm diameter (Bergeron, 1984; Schroeder, 1981). The tumor cell lines employed are: P-388 (ATCC CCL 46), suspension culture of a lymphoid neoplasm from a DBA/2 mouse; A-549 (ATCC CCL 185), monolayer culture of a human lung carcinoma; HT-29 (ATCC HTB-38), monolayer culture of a human colon carcinoma; MEL-28 (ATCC HTB-72), monolayer culture of a human melanoma and DU-145 (ATCC HTB-81), monolayer culture of a human prostate carcinoma.
(§3) Cells were maintained, in logarithmic phase of growth in Eagle's Minimum Essential Medium, with Earle's Balanced Salts, with non-essential amino acids, with 2.0 mM L-Glutamine, without sodium bicarbonate (EMEM/neaa), supplemented with 10% Fetal Calf Serum (FCS), 10^−2 M. sodium bicarbonate and 0.1 U/l penicillin G+0.1 g/l streptomycin sulfate. For the experiments, cells are harvested from subconfluent cultures using trypsin and resuspended in fresh medium before plating.
(§4) A-549, HT-29, MEL-28 and DU-145 cells were seeded into 16 mm diameter wells at 1×10^4 cells per well in 1 ml aliquots of EMEM 5% FCS containing different concentrations of the sample to be tested. A separate set of cultures without drug was seeded as control of growth, to ensure that cells remained in exponential phase of growth. All determinations are carrying out in duplicate. After three days of incubation at 37° C., 5% CO2 in a 98% humid atmosphere cells were stained with 0.1% crystal violet. An approximately IC50 was determined by comparing the growth in wells with drug to the growth in wells control.
(§5) For quantifying the activity, after the incubation time, cells are trypsinized and counted in a Coulter Counter ZM. All counts (net cells per well), represent the average of duplicate wells. % G, percent of growth relative to cultures without drug. The results of these assays are used to generate dose-response curves from which more precise IC50 values are determined (sample concentration which produces 50% cell growth inhibition).
(§6) Obtained results may predict the usefulness of a certain drug as a potential cancer treatment. For this technique, compounds which show IC50 values smaller than 1 μg/ml are selected to continue with further studies. IC50's data allow to predict that not only could a drug be cystostatic, but also it could have a potential in terms of tumor reduction.

A-549 [1] = experiment: Inhibition of cell growth by counting cells, A-549; type: cell-based, human; conditions: Homo sapiens, A549, 72 h, read-out: IC50 (molar) A-549
Summary of the method: (§7)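 Cells were seeded at 1×10^4 per well in EMEM with 5% FCS containing test sample and incubated 3 days at 37 °C, 5% CO2, in duplicate. Cells were then trypsinized and Coulter-counted, and growth was expressed relative to drug-free controls. IC50 (50% growth inhibition) was taken from dose-response curves.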

HT-29 [2] = experiment: Inhibition of cell growth by counting cells, HT-29; type: cell-based, human; conditions: Homo sapiens, HT-29, 72 h, read-out: IC50 (molar) HT-29
Summary of the method: as §7

P-388 = experiment: Inhibition of cell growth by counting cells, P-388; type: cell-based, mouse; conditions: Mus musculus, P388, 72 h, read-out: IC50 (molar) P-388
Experimental: as §1, §2, §3
P-388 cells were seeded into 16 mm diameter wells at 1×10^4 cells per well in 1 ml aliquots of EMEM 5% FCS containing different concentrations of the sample to be tested. A separate set of cultures without drug was seeded as control of growth, to ensure that cells remained in exponential phase of growth. All determinations are carrying out in duplicate.
as §5, §6

DU-145 = experiment: Inhibition of cell growth by counting cells, DU-145; type: cell-based, human; conditions: Homo sapiens, DU-145, 72 h; three days of incubation; read-out: IC50 (molar) DU-145
Experimental: as §1, §2, §3, §4, §5, §6

A-549 [3] = experiment: Inhibition of cells growth by colorimetric assay (SRB), A-549; type: cell-based
Experimental: (§8) 2°.—Inhibition of Cells Growth by Colorimetric Assay.
(§9) A colorimetric type of assay, using sulforhodamine B (SRB) reaction has been adapted for a quantitative measurement of cell growth and viability [following the technique described by Philip Skehan, et al. (1990), New colorimetric cytotoxicity assay for anticancer drug screening, J. Natl. Cancer Inst., 82:1107-1112]
(§10) This form of the assay employs 96 well cell culture microplates of 9 mm diameter (Faircloth, 1988; Mosmann, 1983). Most of the cell lines are obtained from American Type Culture Collection (ATCC) derived from different human cancer types.
(§11) Cells are maintained in RPMI 1640 10% FBS, supplemented with 0.1 g/l penicillin and 0.1 g/l streptomycin sulfate and then incubated at 37° C., 5% CO2 and 98% humidity. For the experiments, cells were harvested from subconfluent cultures using trypsin and resuspended in fresh medium before plating.
(§12) Cells are seeded in 96 well microtiter plates, at 5×10^3 cells per well in aliquots of 195 μl medium, and they are allowed to attach to the plate surface by growing in drug free medium for 18 hours. Afterward, samples are added in aliquots of 5 μl in a ranging from 10 to 10^−8 μg/ml, dissolved in DMSO/EtOH/PBS (0.5:0.5:99). After 48 hours exposure, the antitumor effect are measured by the SRB methodology: cells are fixed by adding 50 μl of cold 50% (wt/vol) trichloroacetic acid (TCA) and incubating for 60 minutes at 4° C. Plates are washed with deionized water and dried. One hundred μl of SRB solution (0.4% wt/vol in 1% acetic acid) is added to each microtiter well and incubated for 10 minutes at room temperature. Unbound SRB is removed by washing with 1% acetic acid. Plates are air dried and bound stain is solubilized with Tris buffer. Optical densities are read on a automated spectrophotometric plate reader at a single wavelength of 490 nm.
(§13) The values for mean+/−SD of data from triplicate wells are calculated. Some parameters for cellular responses can be calculated: GI=growth inhibition, TGI=total growth inhibition (cytostatic effect) and LC=cell killing (cytotoxic effect).
as §6, with “GI50” for “IC50”, “10” for “1”, “GI50's” for “IC50's”

HT-29 [4] = experiment: Inhibition of cells growth by colorimetric assay (SRB), HT-29; type: cell-based
Experimental: as §8, §9, §10, §11, §12, §13
as §6, with “GI50” for “IC50”, “10” for “1”, “GI50's” for “IC50's”

SK-MEL-28 = experiment: Inhibition of cells growth by colorimetric assay (SRB), SK-MEL-28; type: cell-based; conditions: Homo sapiens, SK-MEL-28, 48 h, SRB assay, 48 hours exposure; read-out: MEL-28 GI50
Experimental: as §8, §9, §10, §11, §12, §13
as §6, with “GI50” for “IC50”, “10” for “1”, “GI50's” for “IC50's”

Compound | IC50 (MEL-28; three days of incubation) [nM] | IC50 (A-549 [1]; three days of incubation) [nM] | IC50 (HT-29 [2]; three days of incubation) [nM] | IC50 (P-388; three days of incubation) [nM] | also measured
COc1cc2c(cc1OC(=O)OCc1ccccc1)CCN[C@]21CS[C@@H]2c3c(OC(C)=O)c(C)c4c(c3[C@H](COC1=O)N1C2[C@H]2c3c(cc(C)c(OC)c3OC(=O)OCc3ccccc3)C[C@@H]([C@@H]1C#N)N2C)OCO4 (some centres unmarked) [Compound 28] | 9.62 | 9.62 | 9.62 | 9.62 | IC50 (DU-145): 9.62 nM
CCCCCCCCCCCCCCCC(=O)Oc1cc2c(cc1OC)[C@@]1(CS[C@@H]3c4c(OC(C)=O)c(C)c5c(c4[C@H](COC1=O)N1C3[C@@H]3N[C@@H](Cc4cc(C)c(OC)c(O)c43)[C@@H]1O)OCO5)NCC2 (some centres unmarked) [Compound 215] |  |  |  |  | GI50 (A-549 [3]; Homo sapiens, A549, 48 h, SRB assay, 48 hours exposure, read-out: A-549 GI50): 92.4 nM; LC50 (concentration for 50% cell killing) (A-549 [3]; Homo sapiens, A549, 48 h, read-out: A-549 LC50, SRB assay, 48 hours exposure): 10100 nM; A-549 TGI (A-549 [3]; SRB assay, 48 hours exposure): 1.01E-05; GI50 (HT-29 [4]; Homo sapiens, HT-29, 48 h, SRB assay, 48 hours exposure, read-out: HT-29 GI50): 86.8 nM; LC50 (concentration for 50% cell killing) (HT-29 [4]; Homo sapiens, HT-29, 48 h, read-out: HT-29 LC50, SRB assay, 48 hours exposure): 10100 nM; HT-29 TGI (HT-29 [4]; SRB assay, 48 hours exposure): 1.01E-05; GI50 (SK-MEL-28): 19.7 nM
COc1cc2c(cc1OP(=O)(OCc1ccccc1)OCc1ccccc1)CCN[C@]21CS[C@@H]2c3c(OC(C)=O)c(C)c4c(c3[C@H](COC1=O)N1C2[C@H]2c3c(cc(C)c(OC)c3O)C[C@@H]([C@@H]1C#N)N2C)OCO4 (some centres unmarked) [Compound 53] |  |  |  |  | IC50 (MEL-28): 9.71 nM; IC50 (A-549 [1]): 9.71 nM; IC50 (HT-29 [2]): 9.71 nM; IC50 (P-388): 4.85 nM
COc1cc2c(cc1OC(=O)OC(C)(C)C)CCN[C@]21CS[C@@H]2c3c(OC(C)=O)c(C)c4c(c3[C@H](COC1=O)N1C2[C@@H]2N[C@@H](Cc3cc(C)c(OC)c(O)c32)[C@@H]1C#N)OCO4 (some centres unmarked) [Compound 189] | 0.583 | 0.583 | 0.583 | 0.583 | 
CCOc1cc2c(cc1OC)[C@@]1(CS[C@@H]3c4c(OC(C)=O)c(C)c5c(c4[C@H](COC1=O)N1C3[C@H]3c4c(cc(C)c(OC)c4O)C[C@@H]([C@@H]1C#N)N3C)OCO5)NCC2 (some centres unmarked) [Compound 37] | 0.125 | 0.125 | 0.125 | 0.125 | 
COc1cc2c(cc1O)CCN[C@]21CS[C@@H]2c3c(OC(C)=O)c(C)c4c(c3[C@H](COC1=O)N1C2[C@@H]2N[C@@H](Cc3cc(C)c(OC)c(O)c32)[C@@H]1C#N)OCO4 (some centres unmarked) [Compound 186] | 0.159 | 0.159 | 0.159 | 0.159 | 
COc1cc2c(cc1OC(C)=O)CCN[C@]21CS[C@@H]2c3c(OC(C)=O)c(C)c4c(c3[C@H](COC1=O)N1C2[C@H]2c3c(cc(C)c(OC)c3O)C[C@@H]([C@@H]1C#N)N2C)OCO4 (some centres unmarked) [Compound 2] | 0.148 | 0.148 | 0.148 | 0.148 | 
COc1cc2c(cc1O)CCN(C)[C@]21CS[C@@H]2c3c(OC(C)=O)c(C)c4c(c3[C@H](COC1=O)N1C2[C@H]2c3c(cc(C)c(OC)c3O)C[C@@H]([C@@H]1C#N)N2C)OCO4 (some centres unmarked) [Compound 54] | 0.128 | 0.128 | 0.128 | 0.128 | 
COc1cc2c(cc1O)CCN[C@]21CS[C@@H]2c3c(OC(C)=O)c(C)c4c(c3[C@H](COC1=O)N1C2[C@H]2c3c(cc(C)c(OC)c3OC(C)=O)C[C@@H]([C@@H]1O)N2C)OCO4 (some centres unmarked) [Compound 96] | 1.25 | 1.25 | 1.25 | 1.25 | 
COc1cc2c(cc1O)CCN[C@]21CS[C@@H]2c3c(OC(C)=O)c(C)c4c(c3[C@H](COC1=O)N1C2[C@H]2c3c(cc(C)c(OC)c3OC(C)=O)C[C@@H]([C@@H]1C#N)N2C)OCO4 (some centres unmarked) [Compound 51] | 1.23 | 1.23 | 1.23 | 0.616 | 
CCCOc1cc2c(cc1OC)[C@@]1(CS[C@@H]3c4c(OC(C)=O)c(C)c5c(c4[C@H](COC1=O)N1C3[C@H]3c4c(cc(C)c(OC)c4O)C[C@@H]([C@@H]1C#N)N3C)OCO5)NCC2 (some centres unmarked) [Compound 39] | 0.616 | 0.616 | 0.616 | 0.616 | 
C=CCOC(=O)Oc1cc2c(cc1OC)[C@@]1(CS[C@@H]3c4c(OC(C)=O)c(C)c5c(c4[C@H](COC1=O)N1C3[C@H]3c4c(cc(C)c(OC)c4O)C[C@@H]([C@@H]1C#N)N3C)OCO5)NCC2 (some centres unmarked) [Compound 25] | 0.141 | 0.141 | 0.141 | 0.141 | 
COc1cc2c(cc1O)CCN[C@]21CS[C@@H]2c3c(OC(C)=O)c(C)c4c(c3[C@H](COC1=O)N1C2[C@H]2c3c(cc(C)c(OC)c3O)C[C@@H]([C@@H]1C#N)N2C(=O)OC(C)(C)C)OCO4 (some centres unmarked) [Compound 188] | 0.583 | 0.583 | 0.583 | 0.583 | 
C=CCOC(=O)Oc1cc2c(cc1OC)[C@@]1(CS[C@@H]3c4c(OC(C)=O)c(C)c5c(c4[C@H](COC1=O)N1C3[C@H]3c4c(cc(C)c(OC)c4OC(=O)OCC=C)C[C@@H]([C@@H]1C#N)N3C)OCO5)NCC2 (some centres unmarked) [Compound 26] | 5.33 | 5.33 | 5.33 | 5.33 | 
COc1cc2c(cc1O)CCN[C@]21CS[C@@H]2c3c(O)c(C)c4c(c3[C@H](COC1=O)N1C2[C@@H]2N[C@@H](Cc3cc(C)c(OC)c(O)c32)[C@@H]1C#N)OCO4 (some centres unmarked) [Compound 184] | 0.699 | 0.699 | 0.699 | 0.699 | 
CCCN1CCc2cc(O)c(OC)cc2[C@@]12CS[C@@H]1c3c(OC(C)=O)c(C)c4c(c3[C@H](COC2=O)N2C1[C@H]1c3c(cc(C)c(OC)c3O)C[C@@H]([C@@H]2C#N)N1C)OCO4 (some centres unmarked) [Compound 56] | 0.123 | 0.123 | 0.123 | 0.123 | 
